Patent publication US11571426B2, “Compositions for preventing or treating lupus” (CHONG KUN DANG PHARMACEUTICAL CORP., priority 2017, dated 2023)

How the values were obtained:
NZB/W F1 female mice [1] = test: IgG and C3 depositions in glomerulus (fluorescence immunostaining); type: in vivo, mouse
Protocol: (§1) 80 NZB/W F1 female mice (four weeks old) were purchased from Jackson Laboratory and maintained in an SPF breeding room with five mice per cage. Their weight and urine protein were measured at 24 weeks after birth (right before administration), and then all the animals except those having too much urine protein were divided into groups as shown in a table 2 below such that the urine protein and weight might be evenly distributed among the groups.
(§2) Then, the mice were administered as described in the table 2 once a day for about 19 weeks from 24 weeks after birth to 42 weeks after birth.
To identify a therapeutic effect of the inventive pharmaceutical composition on kidney in the SLE disease model, a degree of IgG and C3 depositions in glomerulus was measured.
With regard to a remaining half of the left kidney collected during the autopsy performed in Example 9, a frozen tissue block was prepared for a frozen section by means of an OCT compound, and then IgG and C3 fluorescence immunostaining was performed by means of a method known in the technical field to which the present invention pertains.
Specifically, the frozen tissue was sectioned in a thickness of 4 μm, then fixed in cold acetone for five minutes, and then washed in phosphate buffered saline (PBS) twice for five minutes. To get rid of a non-specific reaction, a resulting tissue was blocked by means of the PBS solution with the addition of 1% bovine serum albumin and 0.05% tween-20 for 30 minutes, and then reacted at room temperature for one hour by means of FITC-conjugated goat anti-mouse IgG antibodies (1:200, AP308F, Merck Millipore) or FITC-conjugated goat anti-mouse C3 antibodies (1:100, Cappel 55500, MP Bio). After that, the resulting tissue was washed with the PBS for five minutes three times, then covered with a cover glass by means of a mounting medium including DAPI, and then observed by means of a confocal laser scanning microscopy (LSM 700, ZEISS).

NZB/W F1 female mice [2] = test: Serum cytokine level (Milliplex MAP kit) in SLE disease mouse; type: in vivo
Protocol: as §1, §2
(§3) The fresh urine of mice was collected before and after administration every two weeks, while blood collection was performed before and after administration every four weeks. The serum was prepared by centrifugation of the collected blood and then kept at −70° C.
To analyze an effect of the inventive pharmaceutical composition on a change in a serum cytokine level in the SLE disease mouse, a level of GM-CSF, IFN-γ, IL-1α, IL-1β, IL-10, IL-12(p70), IL-15, IL-17a, IL-2, IL-4, IL-6, TNF-α, […], IL-22 and IL-23 in serum was measured by means of a Mouse cytokine Milliplex MAP kit (Merck Millipore), wherein the results thereof were shown in a table 3.
Data obtained from groups were compared using a Kruskal-Wallis (†p<0.05) *p<0.05 versus C group (Mann-Whitney U-test)

NZB/W F1 female mice [3] = test: Proteinuria and UP/C in SLE model mouse; type: in vivo; conditions: for incidence rate of severe proteinuria of 300 mg/dl or more: 42 weeks old
Protocol: as §1, §2, §3
A urine creatinine concentration was obtained by diluting the urine 100-fold, then measuring the concentration thereof by means of a serum chemistry analyzer (Dri-CHEM 3000 colorimetric analyzer, Fujifilm), and then calibrating the measured value using a dilution factor.

NZB/W F1 female mice [4] = test: Weight recovery in SLE model mouse; type: in vivo
Protocol: as §1, §2

NZB/W F1 female mice [5] = test: Ratio of PreB and ProB cells in marrow (FACS); type: in vivo, mouse; conditions: experimental groups vs control group
Protocol: as §1, §2
A ratio of pro B (B220+, CD43+) and pre B (B220+, CD43−) cells in mouse marrow cells was measured by means of FACS. To that end, the marrow cells were obtained by flushing a femur with PBS comprising 5% BSA. After that, red blood cells were hemolyzed by means of EL buffer, then washed with FACS buffer (5% BSA/PBS), and then stained with FITC-conjugated anti-mouse CD43 antibodies (ebioscience) and PE-conjugated anti-mouse […] antibodies (ebioscience), such that a ratio of Pre B (B220+CD43-) and Pro B (B220+CD43+) cells was measured.

NZB/W F1 female mice [6] = test: T cell populations in spleen (FACS) in SLE disease mouse; type: in vivo
NZB/W F1 female mice [7] = test: Serum anti-dsDNA antibodies (ELISA) in SLE model mouse; type: in vivo
Protocol: as §1, §2, §3
To identify if the pharmaceutical composition according to the present invention may reduce an increased concentration of anti-dsDNA antibodies shown in the SLE model animal, a concentration of anti-dsDNA antibodies in mouse serum was measured by means of a mouse anti-dsDNA ELISA (enzyme-linked immunosorbent assay) kit (Shibayagi).

[8] = group D, 10 mg/kg/day i.p., n =10
[9] = group E, 30 mg/kg/day i.p., n = 14
[10] = group F, 50 mg/kg/day i.p., n = 14
[11] = mice of the experimental groups
[12] = 50 mg/kg dosed group vs negative control

O=C(NO)c1ccc(CN(C(=O)N2CCOCC2)c2cccc(C(F)(F)F)c2)cc1 [Compound 374, N-(4-(hydroxycarbamoyl)benzyl)-N-(3-(trifluoromethyl)phenyl)morpholine-4-carboxamide]
level of C3 depositions in kidney (NZB/W F1 female mice [1]; 50 mg/kg dosed group): remarkably decreased
level of IgG depositions in kidney (NZB/W F1 female mice [1]; 50 mg/kg dosed group): remarkably decreased
level of C3 depositions in kidney (NZB/W F1 female mice [1]; experimental groups): decreased
level of IgG depositions in kidney (NZB/W F1 female mice [1]; experimental groups): decreased
GM-CSF in serum (NZB/W F1 female mice [2]; [8]): 2.65 ± 2.65 pg/mL
IFN-γ in serum (NZB/W F1 female mice [2]; [8]): 1.06 ± 1.06 pg/mL
IL17 in serum (NZB/W F1 female mice [2]; [8]): 10.40 ± 3.86 pg/mL
IL22 in serum (NZB/W F1 female mice [2]; [8]): 27.05 ± 9.95 pg/mL
IL-1α in serum (NZB/W F1 female mice [2]; [8]): 371.96 ± 82.72 pg/mL
IL-1β in serum (NZB/W F1 female mice [2]; [8]): 1.27 ± 0.65 pg/mL
IL-2 in serum (NZB/W F1 female mice [2]; [8]): 1.91 ± 1.77 pg/mL
IL-4 in serum (NZB/W F1 female mice [2]; [8]): 1.74 ± 0.19 pg/mL
IL-6 in serum (NZB/W F1 female mice [2]; [8]): 7.21 ± 2.34 pg/mL
IL-10 in serum (NZB/W F1 female mice [2]; [8]): 25.00 ± 8.01 pg/mL
IL-12(70) in serum (NZB/W F1 female mice [2]; [8]): 1.94 ± 1.17 pg/mL
IL-15 in serum (NZB/W F1 female mice [2]; [8]): 184.36 ± 88.58 pg/mL
IL-23 in serum (NZB/W F1 female mice [2]; [8]): 1.96 ± 1.96 pg/mL
TGF-β in serum (NZB/W F1 female mice [2]; [8]): 73356.45 ± 7258.05 pg/mL
TNF-α in serum (NZB/W F1 female mice [2]; [8]): 7.91 ± 2.67 pg/mL
GM-CSF in serum (NZB/W F1 female mice [2]; [9]): 5.32 ± 4.06 pg/mL
IFN-γ in serum (NZB/W F1 female mice [2]; [9]): 6.60 ± 4.07 pg/mL
IL17 in serum (NZB/W F1 female mice [2]; [9]): 21.14 ± 14.59 pg/mL
IL22 in serum (NZB/W F1 female mice [2]; [9]): 13.00 ± 4.40 pg/mL
IL-1α in serum (NZB/W F1 female mice [2]; [9]): 458.40 ± 90.79 pg/mL
IL-1β in serum (NZB/W F1 female mice [2]; [9]): 74.66 ± 70.56 pg/mL
IL-2 in serum (NZB/W F1 female mice [2]; [9]): 9.32 ± 4.75 pg/mL
IL-4 in serum (NZB/W F1 female mice [2]; [9]): 8.60 ± 6.80 pg/mL
IL-6 in serum (NZB/W F1 female mice [2]; [9]): 21.23 ± 13.62 pg/mL
IL-10 in serum (NZB/W F1 female mice [2]; [9]): 56.55 ± 39.16 pg/mL
IL-12(70) in serum (NZB/W F1 female mice [2]; [9]): 74.50 ± 63.63 pg/mL
IL-15 in serum (NZB/W F1 female mice [2]; [9]): 162.41 ± 53.62 pg/mL
IL-23 in serum (NZB/W F1 female mice [2]; [9]): 100.56 ± 100.56 pg/mL
TGF-β in serum (NZB/W F1 female mice [2]; [9]): 58807.36 ± 6685.72 pg/mL
TNF-α in serum (NZB/W F1 female mice [2]; [9]): 16.25 ± 13.46 pg/mL
GM-CSF in serum (NZB/W F1 female mice [2]; [10]): 1.89 ± 1.89 pg/mL
IFN-γ in serum (NZB/W F1 female mice [2]; [10]): 2.07 ± 1.44 pg/mL
IL-1α in serum (NZB/W F1 female mice [2]; [10]): 629.16 ± 128.47 pg/mL
IL-1β in serum (NZB/W F1 female mice [2]; [10]): 3.86 ± 2.09 pg/mL
IL-2 in serum (NZB/W F1 female mice [2]; [10]): 4.09 ± 2.63 pg/mL
IL-4 in serum (NZB/W F1 female mice [2]; [10]): 3.70 ± 1.73 pg/mL
IL-6 in serum (NZB/W F1 female mice [2]; [10]): 5.69 ± 2.39 pg/mL
IL-12(70) in serum (NZB/W F1 female mice [2]; [10]): 15.62 ± 12.09 pg/mL
IL-23 in serum (NZB/W F1 female mice [2]; [10]): 41.34 ± 41.34 pg/mL
TGF-β level (NZB/W F1 female mice [2]; [11]): increased
serum concentration of IL-10 (NZB/W F1 female mice [2]; [11]): decreased
serum concentration of IL-12 (NZB/W F1 female mice [2]; [11]): decreased
serum concentration of IL-15 (NZB/W F1 female mice [2]; [11]): decreased
serum concentration of IL-17 (NZB/W F1 female mice [2]; [11]): decreased
serum concentration of IL-22 (NZB/W F1 female mice [2]; [11]): decreased
serum concentration of TNF-α (NZB/W F1 female mice [2]; [11]): decreased
incidence rate of severe proteinuria of 300 mg/dl or more (NZB/W F1 female mice [3]; 10 mg/kg dosed group): 60%
incidence rate of severe proteinuria of 300 mg/dl or more (NZB/W F1 female mice [3]; 30 mg/kg dosed group): 6.7%
incidence rate of severe proteinuria of 300 mg/dl or more (NZB/W F1 female mice [3]; 50 mg/kg dosed group): 0%
UP/C (ratio of urine protein:creatine) (NZB/W F1 female mice [3]; 36-week old, all the experimental groups): remarkably decreased
UP/C value (NZB/W F1 female mice [3]; 42-week old, all experimental groups except the 10 mg/kg dosed group, vs negative control): decreased more
incidence rate of severe proteinuria (NZB/W F1 female mice [3]; experimental groups, 24 to 42 week after birth): remarkably improved
weight (NZB/W F1 female mice [4]; 10 mg/kg dosed group, from about 40 weeks): recovered to the same level as that of the positive control group
weight recovery (NZB/W F1 female mice [4]; 30 and 50 mg/kg dosed groups, vs positive control): more excellent weight recovery effect
ratio of pre B and pro B cells in marrow (NZB/W F1 female mice [5]): significant change in the ratio of pre B and pro B cells was not observed
decrease of ratio of CD138+ cells (NZB/W F1 female mice [6]; 10 mg/kg dosed group, vs negative control): 21.2%
decrease of ratio of CD138+ cells (NZB/W F1 female mice [6]; 30 mg/kg dosed group, vs negative control): 25.2%
decrease of ratio of CD138+ cells (NZB/W F1 female mice [6]; [12]): 31.6%
decrease of serum concentration of anti-dsDNA antibodies (NZB/W F1 female mice [7]; [12]): two-fold
serum concentration of anti-dsDNA antibodies (NZB/W F1 female mice [7]; after 28 week after birth, all the experimental groups, vs negative control): tended to decrease more
